1 molecule from patent US20250136722A1, “CYTOTOXICITY TARGETING CHIMERAS” (GLAXOSMITHKLINE INTELLECTUAL PROPERTY DEVELOPMENT LIMITED, priority 2021, published 2025) can be followed below.

This data set has as its system CCR2+ expressing cells. Nature of the data set: Alternative dosing strategy of ARM compound to anti-cotinine antibody, blood concentration and CCR2+ cell depletion (Example 206). Format: in vivo. The settings on record: co-dosing vs sequential dosing with anti-cotinine antibody, intravenously. The text has this:
FIGS. 3A-3B: Alternative dosing strategy of small molecule ARM compound to anti-cotinine antibody, as described in Example 206, with anti-cotinine antibody and small molecule ARM compound (Example 1) co-dosed or sequentially dosed intravenously;
FIG. 5: Alternative dosing strategy of small molecule ARM compound to anti-cotinine antibody, as described in Example 206, with anti-cotinine antibody administered intravenously and ARM compound (Example 1) administered subcutaneously following a 2-hour delay from antibody dosing at various molar ratios of small molecule ARM: antibody; data shown is blood concentration of small molecule ARM compound at various timepoints following administration.

In the case of `CC(C)N(C)[C@@H]1CC[C@H](N2CC[C@H](Nc3ncnc4ccc(C(F)(F)F)cc34)C2=O)[C@H](NC(=O)[C@H]2CC[C@H](NC(=O)CCCO[C@H]3CC[C@H](OCCNC(=O)[C@H]4CC(=O)N(C)[C@@H]4c4cccnc4)CC3)CC2)C1` [Example 1, (2S,3S)-N-(2-(((1R,4S)-4-(4-(((1R,4R)-4-(((1R,2S,5R)-5-(Isopropyl(methyl)amino)-2-((S)-2-oxo-3-((6-(trifluoromethyl)quinazolin-4-yl)amino)pyrrolidin-1-yl)cyclohexyl)carbamoyl)cyclohexyl)amino)-4-oxobutoxy)cyclohexyl)oxy)ethyl)-1-methyl-5-oxo-2-(pyridin-3-yl)pyrrolidine-3-carboxamide], the “PD (percent depletion of CCR2+ expressing cells)” value was “unchanged” and the “PK (blood concentration of small molecule ARM compound)” value is listed as “unchanged”.
